What all share (format): functional, cell-based
The subject of assay [1] is KB. Kind of assay: Antiproliferative activity against wild-type human KB cells after 24 hrs by MTS assay.
The test system of the next assay is L1210. Kind of assay: Antiproliferative activity against mouse L1210 cells after 24 hrs by MTS assay. To be noted: L1210, 24 h. On the technique in general: Tetrazolium assays rely on reduction of a dye to a coloured formazan, in cell work by metabolically active cells.
Assay [2] relates to KB. Put plainly: Antiproliferative activity against hydroxyurea-resistant human KB cells after 24 hrs by MTS assay.
In a further assay the test system is WIL2-NS. Put plainly: Antiproliferative activity against human WIL2-NS cells after 96 hrs by MTT assay.
The next assay relates to MT4. Put plainly: Antiproliferative activity against human MT4 cells after 96 hrs by MTT assay. To be noted: MT4, 96 h.
A further assay deals with MCF7. Kind of assay: Antiproliferative activity against human MCF7 cells after 96 hrs by MTT assay. To be noted: MCF7, 96 h.
In a further assay the test system is SK-MEL-28. Kind of assay: Antiproliferative activity against human SK-MEL-28 cells after 96 hrs by MTT assay. To be noted: SK-MEL-28, 96 h.
Another assay relates to CCRF-SB. Kind of assay: Antiproliferative activity against human CCRF-SB cells after 96 hrs by MTT assay.
A further assay deals with CCRF-CEM. Kind of assay: Antiproliferative activity against human CCRF-CEM cells after 96 hrs by MTT assay.

Consider 2 compounds from ChEMBL document CHEMBL2396568, “An insight into synthetic Schiff bases revealing antiproliferative activities in vitro” (Bioorg Med Chem, 2013).

In general, IC50 refers to the concentration at which inhibition is half-maximal. As for `Cc1c2ccccc2c(/C=N/NC(=O)NO)c2ccccc12`, the values for the IC50 in the assay on KB [1], in the assay on L1210 and with KB [2] were 9.3 µM, 6.5 µM and 8.9 µM, respectively.

Consider `O=[N+]([O-])c1ccc(/C=N\c2nsc3ccccc23)o1`, for which the half-maximal inhibitory concentration (IC50) with WIL2-NS worked out at 6.5 µM; with MT4 it was 2 µM; in the assay with MCF7 it was 10 µM; in the assay on SK-MEL-28, 6 µM; in the assay on CCRF-SB, 5 µM; in the assay with CCRF-CEM, 2 µM.
